Measured values published in patent publication US20200200775A1, “OXIDIZED LIPIDS AS BIOMARKERS FOR NEUROPATHIC PAIN” (Fraunhofer-Gesellschaft zur Förderung der angewandten …, priority 2017, published 2020).

How the values were obtained:
[1] = LC-MS/MS lipid profiling in mouse models of chemotherapy-induced peripheral neuropathic pain; details: for concentrations of 9,10-EpOME: various pain relevant tissues and plasma following paclitaxel (6 mg/kg i.p.) or oxaliplatin (3 mg/kg i.p.) treatment, measurable as early as 24 hours after injection; for concentrations of 9-HODE / concentrations of 13-HODE: various pain relevant tissues and plasma following paclitaxel or oxaliplatin treatment
Protocol: For all behavioral experiments, only 6-12 weeks old male C57BL/6N mice were used and purchased from commercial breeding companies (Charles River, Sulzfeld, Germany, Janvier, Le Geneset-Saint-Isle, FR). To compare mechanical thresholds, age and sex matched littermates were used as control.
Paclitaxel was dissolved in Cremophor EL/Ethanol 1:1 and diluted in saline. The dose for intraperitoneal injection was set to 6 mg/kg as described previously [4]. Oxaliplatin was dissolved in saline. The dose for intraperitoneal injection was set to 3 mg/kg as described previously [5].
For the measurement of epoxy lipids and HETEs stock solutions of the analytes 9,10-EpOME, 9-HODE, 13-HODE, 12-HETE and 15-HETE and internal standards 9,10-EpOME-d4, 9-HODE-d4, 13-HODE-d4, 12-HETE-d4 and 15-HETE-d4 are generated with concentrations of 2500 ng/ml in ethanol. Working standards were obtained by further dilution with a concentration range of 0.1-250 ng/ml for all analytes.
For prostanoids, stock solutions with 50,000 ng/ml of all analytes (6-keto-PGF1α) and internal standards (6-keto-PGF1α-d4) were prepared in methanol.
Lipids are extracted twice with 600 μl of ethyl acetate using liquid-liquid extraction. The combined organic phases were removed at a temperature of 45° C. under a gentle stream of nitrogen. The residues were reconstituted with 50 μl of methanol/water/butylated hydroxytoluene (BHT) (50:50:10^−3, v/v/v) (EpOMEs, HODEs and HETEs), or 50 μl of acetonitrile/water/formic acid (20:80:0.0025, v/v/v) (6-keto-PGF1α) and then centrifuged for 2 min at 10,000 g, and transferred to glass vials waiting for analysis.
The LC-MS/MS system consists of a QTrap 5500 (AB Sciex, Darmstadt, Germany) equipped with a Turbo-V source operating in negative electrospray ionization mode, an Agilent 1200 binary HPLC pump and degasser (Agilent, Waldbronn, Germany), and an HTC Pal autosampler (CTC analytics, Zwingen, Switzerland). High-purity nitrogen for the mass spectrometer was produced by a NGM 22-LC-MS nitrogen generator (cmc Instruments, Eschborn, Germany).
For the chromatographic separation of EpOMEs, HODEs and HETEs, a Gemini NX C18 column and precolumn were used (150×2 mm inner diameter, 5 μm particle size, and 110 Å pore size; Phenomenex, Aschaffenburg, Germany). For the chromatographic separation of prostanoids, a Synergi 4 u Hydro-RP column (150×2 mm inner diameter, 4 μm, Phenomenex, Aschaffenburg, Germany) and a precolumn of same material were used.
Mobile phase A consist of water: ammonia (100:0.05, v/v), and mobile phase B of acetonitrile ammonia (100:0.05, v/v). The gradient changed from 85% A to 10% within 12 min. These conditions were held for 1 min.
For the chromatographic separation of prostanoids, a Synergi 4 u Hydro-RP column (150×2 mm inner diameter, 4 μm, Phenomenex, Aschaffenburg, Germany) and a precolumn of same material were used.

[2] = Plasma concentrations of 9,10-EpOME and 9,10-DiHOME after paclitaxel treatment, with telmisartan administration; assay type: in vivo, mice; details: 8 d after paclitaxel-treatment (6 mg/kg); telmisartan 10 mg/kg, 2 h
Protocol: FIG. 4: Plasma-concentrations of 9,10-EpoME and its Metabolite 9,10-DiHOME 8d after paclitaxel-treatment (6 mg/kg) can be reduced by administration of telmisartan (10 mg/kg, 2h). Data are shown as mean±SEM from five mice per group; one-way ANOVA, *p<0.05.
Oxaliplatin was dissolved in saline.
These conditions were held for 1 min.
Ratios of analyte peak area and internal standard area.

[3] = pain relevant tissues, FIG. 2: 8 d after i.p. paclitaxel (6 mg/kg)

| concentrations of 12-HETE [1, 3] | concentrations of 15-HETE [1, 3] | concentrations of 6-keto-Prostaglandin-F1α ([1]; pain relevant tissues, FIG. 2: 8 d after multiple i.p. paclitaxel (4×2 mg/kg, every other day)) | SMILES | concentrations of 9,10-EpOME [1] | concentrations of 9-HODE [1] | concentrations of 13-HODE [1] | Plasma-concentrations of 9,10-DiHOME [2] | Plasma-concentrations of 9,10-EpOME [2] |
| --- | --- | --- | --- | --- | --- | --- | --- | --- |
| – | – | – | O=C1[O][Pt]2([NH][C@@H]3CCCC[C@H]3[NH]2)[O]C1=O [oxaliplatin] | elevated | elevated | elevated | – | – |
| decreased | decreased | decreased | CC(=O)O[C@H]1C(=O)[C@@]2(C)[C@H]([C@H](OC(=O)c3ccccc3)[C@]3(O)C[C@H](OC(=O)[C@H](O)[C@@H](NC(=O)c4ccccc4)c4ccccc4)C(C)=C1C3(C)C)[C@]1(OC(C)=O)CO[C@@H]1C[C@@H]2O [paclitaxel] | elevated | elevated | elevated | – | – |
| – | – | – | CCCc1nc2c(C)cc(-c3nc4ccccc4n3C)cc2n1Cc1ccc(-c2ccccc2C(=O)O)cc1 [telmisartan] | – | – | – | reduced | reduced |
